Entries after “also recorded” stand apart in the source; their conditions may differ.
How the values were obtained:
[1] = system: Human primary dermal fibroblasts (HDFa); experiment: Intracellular NAD measurement in human primary dermal fibroblasts; format: cell-based; settings: different concentrations, 3 hrs, absorbance at 405 nm
Protocol: Human primary dermal fibroblasts derived from adult human skins (HDFa, Life technologies, Grand Island, N.Y., Passage 2-4) were grown in Medium 106 (Life Technologies) supplemented with Low Serum Growth Supplement (LSGS) (Life Technologies) and seeded in 12-well plates with density at 2×10^5 cells per well and 2 ml of culture medium in each well.
Stock solution of dihydronicotinamide riboside (NRH, GSK3008320A, GSK, RTP, NC) was prepared in ethanol at 100 mM (25.6 mg/ml) and stored at −20° C. Cells were treated with different concentrations of NRH for 3 hrs, washed twice with PBS containing 5 mM EDTA, and then subject to Nicotinamide adenine dinucleotide (NAD) measurement. In brief, acetonitrile (ACN) lysis buffer (Ammonium Acetate (50 mM) and 90% acetonitrile) was added to each well (200 μl/well) to lyse the cells at RT for 5-10 mins by gently rotating on a culture plate shaker at a low speed. […] At the end of incubation, the supernatant (200 μl) of the reaction solution from each well was transferred to each well of a 96-well plate and absorbance was read twice in the 96-well plate at 405 nm using a plate reader (Spectra Maxplus, Molecular Devices, Sunnyvale, Calif.). […]

[2] = system: HaCaT cells (a human keratinocyte cell line); experiment: Intracellular NAD measurement in HaCaT cells (ADPR cyclase enzymatic assay, absorbance 405 nm); format: cell-based
Protocol: HaCaT cells (AddexBio Technologies, San Diego, Calif., Passage 16-19) were grown in Medium DMEM/GlutMax (Life technologies, Grand Island, N.Y.) supplemented with 10% FBS (Life technologies) and Non-essential amino acids (NEAA, Life technologies) and then seeded in 12-well plates (Corning, Tewksbury, Mass.) with a density at 2×10^5 cells per well and 2 ml of culture medium in each well for overnight.
Stock solution of dihydronicotinamide riboside (NRH, GSK3008320A, GSK, RTP, NC) was prepared in ethanol at 100 mM (25.6 mg/ml) and stored at −20° C. Cells were treated with different concentrations of NRH for 3 hrs, washed twice with PBS containing 5 mM EDTA, and then subject to Nicotinamide adenine dinucleotide (NAD) measurement. In brief, acetonitrile (ACN) lysis buffer (Ammonium Acetate (50 mM) and 90% acetonitrile) was added to each well (200 μl/well) to lyse the cells at RT for 5-10 mins by gently rotating on a culture plate shaker at a low speed. Enzyme master mix (300 μM of 5-Amino-(3,4′-bipyridin)-6(1H)-one (Inamrinone) (Sigma-Aldrich), a substrate for ADP ribosyl cyclase (ADPR cyclase)) and 30 nM ADPR Cyclase (Sigma, St. Louis, Mo.), 7.5 μM of N-(2-fluoro-4-(methylsulfonyl)phenyl)-2-methyl-6-(thiazol-5-yl)isonicotinamide (a CD38 inhibitor) in 75 mM HEPES pH7 buffer (Life Technologies)) was added to the lysed cells (400 μl of enzyme master mix/well). Enzymatic reaction was incubated at RT for ˜30 min. At the end of incubation, the supernatant (200 μl) of the reaction solution from each well was transferred to each well of a 96-well plate and absorbance was read twice in the 96-well plate at 405 nm using a plate reader (Spectra Maxplus, Molecular Devices, Sunnyvale, Calif.). A mixture of enzyme master mix and ACN extraction solution at 2:1 ratio was used as a blank reference. NAD (Sigma) was used as a positive control.
HaCaT cells were grown as described in example 23 in the regular cell culture DMEM medium as described earlier or in the Epilife medium without nacinamide (Life Technologies). Cells were treated with different concentrations of NRH or niacinamide (NIA, DSM nutritional products) for 3 hrs, washed twice with PBS containing 5 mM EDTA, and then subject to Nicotinamide adenine dinucleotide (NAD) measurement as described in example 23. A mixture of enzyme master mix and ACN extraction solution at 2:1 ratio for a blank reference. NAD (Sigma) was used as a positive control. […] Both the CD38 inhibitor and Niacinamide increased NAD in the HaCaT cells cultured in the Vit B3 depleted culture medium, and the induction of NAD by niacinamide was dose-dependent (solid bars). However, the induction of NAD by niacinamide (highest at ˜1.5 fold) was low compared to those by NRH. Therefore, NRH is a stronger NAD inducer compared to a CD38 inhibitor or Niacinamide.
HaCaT cells were grown in regular culture media as described in example 1 and seeded in 12-well plates with density at 2×10^5 cells per well and 1 ml of culture medium in each well. NRH stock solution was prepared in ethanol at 100 mM (25.6 mg/ml) and stored at −20° C. Stock solutions of NRH esters were made at 50 mM in DMSO (see FIG. 9B for compound info). Cells were treated with NRH esters and NRH at 150 μM for 6 and 16 hrs, washed twice with PB S containing 5 mM EDTA, and then subject to Nicotinamide adenine dinucleotide (NAD) measurement as described in example 23.
HaCaT cells were grown in regular culture media as described above and seeded in 12-well plates with density at 2×10^5 cells per well and 1 ml of culture medium in each well. NRH stock solution was prepared in ethanol at 100 mM (25.6 mg/ml) and stored at −20° C. NRH (200 μM) was used as a positive control. Because of the possible solubility issue related to NRH monoC16, fatty acid-free bovine serum albumin (defatted BSA, Sigma) was used as a carrier for the compound. NRH monoC16 stock solution (100×) was complexed with defatted BSA ([…]) prior to the treatment, resulting in a NRH monoC16 stock solution (10 ×). […]

[3] = Storage in a 93% RH salt chamber; format: physicochemical; settings: approximately 22° C., approximately 2¼ hours
Protocol: XRD indicated the sample was amorphous (FIG. 16). A sample of NRH was stored in a 93% RH (relative humidity) salt chamber (at approximately 22° C.) for approximately 2¼ hours. The sample had deliquesced and there was no evidence of crystallization based on XRD analysis.

For NC(=O)C1=CN([C@@H]2O[C@H](CO)[C@@H](O)[C@H]2O)C=CC1 [NRH, dihydronicotinamide riboside], the NAD level [1] was “dose-dependently increases NAD; also recorded: dose-dependently increases NAD^+”, the NAD levels elevation ([2]; HaCaT in DMEM medium with Vit B3, 450 μM, 3 hrs) was roughly 6 fold and the NAD level ([2]; HaCaT keratinocytes, different concentrations, 3 hrs, absorbance at 405 nm) was “dose-dependently increases NAD; also recorded: dose-dependently increases NAD^+”. For the same molecule, the NAD boosting activity ([2]; HaCaT, 150 μM, 6 and 16 hrs) was “consistently showed strong activity on NAD elevation” and the “behaviour on storage at high humidity” value [3] was “deliquesced”.

Reference: US10485814B2, “Nicotinamide riboside analogs and pharmaceutical compositions and uses thereof” (GlaxoSmithKline Intellectual Property (No. 2) Limited, priority 2014, dated 2019)
